Assay results taken from ChEMBL document CHEMBL5465560, “Selectivity Literature for EUbOPEN Chemogenomic Library” (2024).

Tests used:
[1] = biological target: Ribosomal protein S6 kinase alpha-3 (Homo sapiens, UniProt P51812); experiment: Selectivity interaction (KinomeScan (DiscoverX)) EUB0000229b RPS6KA3; conditions: at 10 µM
[2] = biological target: T1, Serine/threonine-protein kinase Nek3 (Homo sapiens) (UniProt P51956); experiment: Selectivity interaction (KinomeScan (DiscoverX)) EUB0001079a NEK3; conditions: at 1 µM
T1 sequence (whole entry): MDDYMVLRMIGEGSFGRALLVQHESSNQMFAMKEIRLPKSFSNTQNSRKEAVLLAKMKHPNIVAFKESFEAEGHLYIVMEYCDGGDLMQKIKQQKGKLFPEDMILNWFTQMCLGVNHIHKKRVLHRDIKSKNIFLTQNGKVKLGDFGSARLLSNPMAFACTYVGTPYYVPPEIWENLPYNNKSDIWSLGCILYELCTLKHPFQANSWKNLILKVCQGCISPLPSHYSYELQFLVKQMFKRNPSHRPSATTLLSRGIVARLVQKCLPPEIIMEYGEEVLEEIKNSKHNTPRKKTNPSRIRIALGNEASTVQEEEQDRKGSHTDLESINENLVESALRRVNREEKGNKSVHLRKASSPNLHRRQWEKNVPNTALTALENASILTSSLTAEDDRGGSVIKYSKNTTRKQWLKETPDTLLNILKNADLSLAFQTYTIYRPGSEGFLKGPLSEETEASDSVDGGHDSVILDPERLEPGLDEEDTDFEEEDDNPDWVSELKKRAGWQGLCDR

[3] = biological target: Ephrin type-A receptor 7 (Homo sapiens) (UniProt Q15375); experiment: Selectivity interaction (KinomeScan (DiscoverX)) EUB0001079a EPHA7; conditions: at 1 µM
Sequence of Ephrin type-A receptor 7 (Homo sapiens) (Q15375 28-998 limits assumed): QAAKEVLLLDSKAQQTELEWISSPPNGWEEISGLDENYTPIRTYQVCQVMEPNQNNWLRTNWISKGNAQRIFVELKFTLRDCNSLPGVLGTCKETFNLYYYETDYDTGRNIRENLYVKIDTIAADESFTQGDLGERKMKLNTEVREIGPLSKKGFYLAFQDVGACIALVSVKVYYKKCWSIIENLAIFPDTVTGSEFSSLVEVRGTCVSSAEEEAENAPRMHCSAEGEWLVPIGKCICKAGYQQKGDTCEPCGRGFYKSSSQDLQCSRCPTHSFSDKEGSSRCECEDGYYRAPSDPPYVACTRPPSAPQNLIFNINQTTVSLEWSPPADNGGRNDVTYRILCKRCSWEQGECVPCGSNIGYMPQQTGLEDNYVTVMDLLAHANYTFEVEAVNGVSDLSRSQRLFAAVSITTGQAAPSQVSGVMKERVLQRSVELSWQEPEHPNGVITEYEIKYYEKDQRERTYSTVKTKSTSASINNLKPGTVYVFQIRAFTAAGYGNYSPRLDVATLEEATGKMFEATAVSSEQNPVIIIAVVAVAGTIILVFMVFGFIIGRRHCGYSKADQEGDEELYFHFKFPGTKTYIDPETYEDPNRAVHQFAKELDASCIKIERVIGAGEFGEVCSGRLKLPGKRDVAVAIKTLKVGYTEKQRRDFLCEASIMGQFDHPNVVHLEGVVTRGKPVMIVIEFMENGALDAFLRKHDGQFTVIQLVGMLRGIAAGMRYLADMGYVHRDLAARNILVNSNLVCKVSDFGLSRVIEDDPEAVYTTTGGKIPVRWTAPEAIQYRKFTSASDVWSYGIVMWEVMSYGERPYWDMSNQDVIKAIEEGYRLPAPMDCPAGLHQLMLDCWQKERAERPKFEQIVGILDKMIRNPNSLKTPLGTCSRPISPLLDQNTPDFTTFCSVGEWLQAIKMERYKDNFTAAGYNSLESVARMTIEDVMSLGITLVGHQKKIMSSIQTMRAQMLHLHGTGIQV

[4] = biological target: Serine/threonine-protein kinase WNK2 (Homo sapiens) (UniProt Q9Y3S1); experiment: Selectivity interaction (Kinase panel (Invitrogen)) EUB0000639a WNK2; conditions: at 200 nM
Sequence of Serine/threonine-protein kinase WNK2 (Homo sapiens) (Q9Y3S1 whole entry): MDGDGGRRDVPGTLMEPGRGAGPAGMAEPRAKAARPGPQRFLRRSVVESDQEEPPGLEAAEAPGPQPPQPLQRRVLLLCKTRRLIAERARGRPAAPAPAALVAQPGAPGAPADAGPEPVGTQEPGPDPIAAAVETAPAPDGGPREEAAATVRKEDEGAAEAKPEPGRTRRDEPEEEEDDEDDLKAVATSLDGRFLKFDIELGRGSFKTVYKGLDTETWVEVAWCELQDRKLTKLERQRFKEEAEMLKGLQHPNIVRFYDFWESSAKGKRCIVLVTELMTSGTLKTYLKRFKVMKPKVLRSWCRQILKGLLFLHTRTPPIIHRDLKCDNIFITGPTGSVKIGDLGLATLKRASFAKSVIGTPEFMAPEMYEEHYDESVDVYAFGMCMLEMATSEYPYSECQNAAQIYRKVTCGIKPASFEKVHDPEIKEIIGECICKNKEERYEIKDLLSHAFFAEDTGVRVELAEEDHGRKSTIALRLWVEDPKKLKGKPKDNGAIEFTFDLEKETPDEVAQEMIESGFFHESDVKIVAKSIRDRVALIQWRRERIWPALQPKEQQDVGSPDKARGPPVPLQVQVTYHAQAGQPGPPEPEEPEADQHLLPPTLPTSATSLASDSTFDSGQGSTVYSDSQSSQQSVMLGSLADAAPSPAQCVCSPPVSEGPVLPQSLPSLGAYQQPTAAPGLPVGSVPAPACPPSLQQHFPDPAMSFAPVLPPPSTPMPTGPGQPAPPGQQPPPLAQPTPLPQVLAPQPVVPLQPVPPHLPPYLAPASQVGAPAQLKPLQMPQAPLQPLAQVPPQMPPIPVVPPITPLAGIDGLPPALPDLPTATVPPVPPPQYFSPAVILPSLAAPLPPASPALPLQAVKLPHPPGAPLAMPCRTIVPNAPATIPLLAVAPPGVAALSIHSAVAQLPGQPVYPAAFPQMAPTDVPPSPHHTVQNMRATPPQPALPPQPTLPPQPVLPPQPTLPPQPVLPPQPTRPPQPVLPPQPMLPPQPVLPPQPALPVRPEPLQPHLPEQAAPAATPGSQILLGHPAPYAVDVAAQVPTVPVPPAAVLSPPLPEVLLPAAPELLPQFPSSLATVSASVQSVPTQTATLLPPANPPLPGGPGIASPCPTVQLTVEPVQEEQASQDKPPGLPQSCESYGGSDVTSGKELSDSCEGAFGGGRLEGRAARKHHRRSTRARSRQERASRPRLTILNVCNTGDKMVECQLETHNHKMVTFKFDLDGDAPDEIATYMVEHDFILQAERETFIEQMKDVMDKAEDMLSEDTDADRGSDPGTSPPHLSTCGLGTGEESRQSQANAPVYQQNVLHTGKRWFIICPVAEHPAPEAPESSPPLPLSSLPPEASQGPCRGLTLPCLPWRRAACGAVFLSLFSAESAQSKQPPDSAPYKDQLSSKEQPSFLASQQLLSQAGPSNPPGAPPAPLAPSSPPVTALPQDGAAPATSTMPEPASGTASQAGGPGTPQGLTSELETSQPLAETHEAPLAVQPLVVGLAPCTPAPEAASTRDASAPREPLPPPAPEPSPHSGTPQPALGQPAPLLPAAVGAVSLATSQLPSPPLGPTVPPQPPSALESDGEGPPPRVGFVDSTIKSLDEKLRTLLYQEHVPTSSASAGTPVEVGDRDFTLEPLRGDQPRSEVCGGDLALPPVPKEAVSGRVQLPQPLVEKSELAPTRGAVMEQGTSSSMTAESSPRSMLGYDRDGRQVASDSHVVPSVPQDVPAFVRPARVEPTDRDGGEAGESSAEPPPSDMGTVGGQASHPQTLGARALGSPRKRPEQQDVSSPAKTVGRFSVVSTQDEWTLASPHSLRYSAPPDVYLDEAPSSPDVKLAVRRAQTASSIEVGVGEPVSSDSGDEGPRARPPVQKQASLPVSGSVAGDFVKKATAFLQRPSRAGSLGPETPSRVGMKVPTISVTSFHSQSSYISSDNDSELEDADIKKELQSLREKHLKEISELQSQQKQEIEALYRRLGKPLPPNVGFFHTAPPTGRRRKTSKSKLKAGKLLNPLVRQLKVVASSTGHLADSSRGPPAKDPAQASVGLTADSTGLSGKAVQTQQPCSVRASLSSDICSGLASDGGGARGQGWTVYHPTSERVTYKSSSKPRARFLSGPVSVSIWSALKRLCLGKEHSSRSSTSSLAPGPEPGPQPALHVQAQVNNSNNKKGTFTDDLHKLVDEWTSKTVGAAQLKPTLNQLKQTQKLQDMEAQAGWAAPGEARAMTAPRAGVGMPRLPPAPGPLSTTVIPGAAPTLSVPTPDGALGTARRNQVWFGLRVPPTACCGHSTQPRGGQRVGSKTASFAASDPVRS

[5] = biological target: T2, Megakaryocyte-associated tyrosine-protein kinase (Homo sapiens) (UniProt P42679); experiment: Selectivity interaction (KinomeScan (DiscoverX)) EUB0000618a MATK; conditions: at 10 µM
T2 sequence (whole entry): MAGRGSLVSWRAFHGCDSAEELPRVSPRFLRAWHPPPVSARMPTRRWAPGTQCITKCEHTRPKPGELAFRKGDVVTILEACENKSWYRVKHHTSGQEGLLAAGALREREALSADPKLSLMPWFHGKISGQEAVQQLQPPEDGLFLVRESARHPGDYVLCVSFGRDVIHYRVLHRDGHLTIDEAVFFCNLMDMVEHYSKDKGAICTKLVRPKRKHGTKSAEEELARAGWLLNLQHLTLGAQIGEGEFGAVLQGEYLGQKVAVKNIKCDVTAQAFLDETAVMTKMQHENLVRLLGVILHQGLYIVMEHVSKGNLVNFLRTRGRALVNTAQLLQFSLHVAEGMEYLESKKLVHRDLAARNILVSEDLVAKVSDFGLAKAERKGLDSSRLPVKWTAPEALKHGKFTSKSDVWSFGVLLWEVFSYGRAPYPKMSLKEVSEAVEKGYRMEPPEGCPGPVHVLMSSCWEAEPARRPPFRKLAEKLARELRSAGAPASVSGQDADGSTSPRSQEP

[6] = biological target: T3, Mitogen-activated protein kinase kinase kinase 2 (Homo sapiens) (UniProt Q9Y2U5); experiment: Selectivity interaction (KinomeScan (DiscoverX)) EUB0000618a MAP3K2; conditions: at 10 µM
T3 sequence (whole entry): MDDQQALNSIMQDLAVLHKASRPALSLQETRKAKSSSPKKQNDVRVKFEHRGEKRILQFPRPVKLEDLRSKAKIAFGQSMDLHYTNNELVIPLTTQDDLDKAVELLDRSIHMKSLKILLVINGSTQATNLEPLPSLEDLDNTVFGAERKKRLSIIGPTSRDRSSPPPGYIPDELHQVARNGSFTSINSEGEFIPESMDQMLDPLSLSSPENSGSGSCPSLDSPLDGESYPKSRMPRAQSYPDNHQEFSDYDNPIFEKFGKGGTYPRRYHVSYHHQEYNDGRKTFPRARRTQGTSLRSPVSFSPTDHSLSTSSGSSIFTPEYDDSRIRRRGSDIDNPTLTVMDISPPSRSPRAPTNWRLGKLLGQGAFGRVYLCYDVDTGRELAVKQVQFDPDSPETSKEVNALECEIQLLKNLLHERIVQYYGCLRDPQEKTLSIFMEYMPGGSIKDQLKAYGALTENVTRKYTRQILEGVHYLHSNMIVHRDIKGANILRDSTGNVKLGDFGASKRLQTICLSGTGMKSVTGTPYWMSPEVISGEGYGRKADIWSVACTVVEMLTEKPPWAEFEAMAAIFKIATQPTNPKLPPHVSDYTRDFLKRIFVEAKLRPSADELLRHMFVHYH

[7] = biological target: T4, Protein kinase C epsilon type (Homo sapiens) (UniProt Q02156); experiment: Selectivity interaction (Kinase panel (Z-LYTE Assay)) EUB0001632a PRKCE; conditions: at 10 µM
T4 sequence (whole entry): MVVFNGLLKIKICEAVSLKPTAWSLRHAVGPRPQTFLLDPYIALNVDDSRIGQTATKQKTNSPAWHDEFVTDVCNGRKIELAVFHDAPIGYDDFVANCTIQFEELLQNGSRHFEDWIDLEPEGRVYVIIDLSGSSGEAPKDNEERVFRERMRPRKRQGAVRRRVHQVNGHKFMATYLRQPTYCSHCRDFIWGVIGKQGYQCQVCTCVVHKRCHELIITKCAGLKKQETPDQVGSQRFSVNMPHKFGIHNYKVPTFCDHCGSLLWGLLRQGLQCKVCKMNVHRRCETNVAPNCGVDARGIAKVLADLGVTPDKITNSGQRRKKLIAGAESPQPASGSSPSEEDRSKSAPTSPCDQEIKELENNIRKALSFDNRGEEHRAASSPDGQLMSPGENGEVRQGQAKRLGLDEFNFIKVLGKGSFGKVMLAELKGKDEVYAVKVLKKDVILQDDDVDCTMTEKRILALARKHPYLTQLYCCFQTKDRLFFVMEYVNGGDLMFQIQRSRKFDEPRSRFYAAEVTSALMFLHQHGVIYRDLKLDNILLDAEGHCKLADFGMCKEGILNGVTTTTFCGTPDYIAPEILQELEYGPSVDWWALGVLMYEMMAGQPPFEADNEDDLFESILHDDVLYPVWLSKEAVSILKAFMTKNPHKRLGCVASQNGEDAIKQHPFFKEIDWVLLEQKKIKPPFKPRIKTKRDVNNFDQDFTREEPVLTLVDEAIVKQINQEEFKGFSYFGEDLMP

[8] = biological target: Potassium voltage-gated channel subfamily A member 1 (Homo sapiens) (UniProt Q09470); experiment: Selectivity interaction (Panel of non-epigenetic targets (kinases, GPCRs, ion channels, and transporters, Eurofins) ) EUB0000271b KCNA1; conditions: at 1 µM
Sequence of Potassium voltage-gated channel subfamily A member 1 (Homo sapiens) (Q09470 whole entry): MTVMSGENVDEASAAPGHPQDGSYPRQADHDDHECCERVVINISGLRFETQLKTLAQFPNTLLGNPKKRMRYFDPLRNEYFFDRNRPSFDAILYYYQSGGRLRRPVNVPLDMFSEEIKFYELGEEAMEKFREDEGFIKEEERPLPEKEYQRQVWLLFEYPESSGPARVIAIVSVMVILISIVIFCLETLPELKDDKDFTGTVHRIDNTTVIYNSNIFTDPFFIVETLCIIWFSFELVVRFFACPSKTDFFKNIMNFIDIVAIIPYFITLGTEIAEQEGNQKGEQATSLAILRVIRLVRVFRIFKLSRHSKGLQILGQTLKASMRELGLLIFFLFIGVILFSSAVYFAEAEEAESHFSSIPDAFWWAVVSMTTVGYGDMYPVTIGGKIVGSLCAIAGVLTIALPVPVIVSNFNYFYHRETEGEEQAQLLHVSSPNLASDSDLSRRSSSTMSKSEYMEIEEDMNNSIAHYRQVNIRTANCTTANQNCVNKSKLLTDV

Sequence of Ribosomal protein S6 kinase alpha-3 (P51812 whole entry): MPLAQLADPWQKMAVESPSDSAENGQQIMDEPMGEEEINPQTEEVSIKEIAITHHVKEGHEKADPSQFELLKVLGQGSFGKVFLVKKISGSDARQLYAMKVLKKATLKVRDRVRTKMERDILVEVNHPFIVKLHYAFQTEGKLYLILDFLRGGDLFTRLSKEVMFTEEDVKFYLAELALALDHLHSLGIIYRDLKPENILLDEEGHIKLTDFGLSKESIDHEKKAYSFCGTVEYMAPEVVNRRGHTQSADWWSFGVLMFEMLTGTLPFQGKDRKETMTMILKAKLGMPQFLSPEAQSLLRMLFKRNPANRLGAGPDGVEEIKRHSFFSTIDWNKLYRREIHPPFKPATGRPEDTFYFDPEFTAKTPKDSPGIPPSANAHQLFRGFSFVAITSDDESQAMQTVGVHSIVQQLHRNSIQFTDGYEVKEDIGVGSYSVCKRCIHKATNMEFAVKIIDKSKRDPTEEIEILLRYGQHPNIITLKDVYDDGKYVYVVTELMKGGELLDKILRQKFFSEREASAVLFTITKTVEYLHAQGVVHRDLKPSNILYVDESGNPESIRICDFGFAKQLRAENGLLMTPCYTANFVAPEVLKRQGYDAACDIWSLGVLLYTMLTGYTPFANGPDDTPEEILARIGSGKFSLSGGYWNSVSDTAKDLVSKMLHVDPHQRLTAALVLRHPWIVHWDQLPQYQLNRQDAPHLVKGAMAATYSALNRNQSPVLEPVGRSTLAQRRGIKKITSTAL

**Q.** Which % binding [1] does the source give for `COc1cc(N(C)c2ccnc3ccc(C(F)(F)F)cc23)cc(OC)c1OC` here?
**A.** Its % binding is 95%.

**Q.** What does the source list for `Nc1cnc(N2CCc3cc(S(=O)(=O)Nc4c(F)cc(Cl)cc4F)cc(N4CCCC4=O)c32)nc1` [TP-020n]?
**A.** % of control [2]: 100%; % of control [3]: 85%

**Q.** Which % of inhibition [4] does the source give for `CC[C@@H]1[C@H](F)C(=O)N[C@@H]1COc1nccc2cc(C(N)=O)c(OC)cc12` [ZIMLOVISERTIB] here?
**A.** Its % of inhibition is 3.33%.

**Q.** `O[C@H]1CC[C@H](Nc2ncc3nc(Nc4c(F)cc(F)cc4F)n([C@H]4CCOC4)c3n2)CC1` was tested. Which % of control [5] did it give?
**A.** The % of control was 95%.

**Q.** And the % of control [6]?
**A.** Its % of control is 82%.

**Q.** `Cn1cc(-n2cnc3c(NCc4nc5cc(Cl)c(Cl)cc5[nH]4)nc(N4CCOCC4)nc32)cn1` was tested. Which % of control [7] did it give?
**A.** Its % of control is -8.31%.

**Q.** For `Cc1cc(C)cc([C@@H]2c3cc(C)ccc3NC(=O)CN2C(=O)c2ccc(Br)s2)c1`, which % of inhibition [8] is on record?
**A.** Its % of inhibition is -10%.
